# Reference: US12246034B2, “Animal feed supplement and method” (CAN TECHNOLOGIES, INC., priority 2014, dated 2025)
# Read-outs that look alike come from different tables or passages of the source.
# Key:
# sows [1] = settings: for NBA (Number Born Alive) / TNB (Total Number Born) / Litter growth, 24 hour to 3 days / Litter growth, Start to 24 hour / Litter growth, Start to 3 days / Piglet weight, 24 hour / Piglet weight, 3 days / Piglet weight, Start / Birth weight: LS Means ± SEM; for NBD (Number Born Death), stillborn piglets / Mortality: log transformed, back-transformed to absolute values; for Litter weight, 24 hour / Litter weight, 3 days / Litter weight, Start: corrected for mortality and cross fostering; for Birth weight: litter
# Method: A field trial was conducted on a commercial farm in Denmark with 650 highly productive Danbred sows (Landrace x Yorkshire) inseminated with a pure line Duroc boar, between Nov. 17, 2014 and Jan. 16, 2015. A total of 139 sows (total number before analyzes) were included in the trial, divided over 3 subsequent sow groups farrowing over a time span of 6 weeks. For all analyzes SAS software (version 9.3, SAS Institute Inc., Cary, N.C.) was used. Sows received a dry meal transition feed (from gestation to lactation), fed from day 111 of gestation till day 5 of lactation, and were allocated to one of the two treatment groups based on parity. […] The total amount of calcium was equal between both experimental treatments. Number born alive (NBA), stillborn and mummies, litter birth weight, as well as back fat of the sows before farrowing (day 110 of gestation) and at weaning (day 24 of lactation) were measured. Litter weights at 24 hours and 3 days after birth were measured as well. On day 3 after birth blood samples were taken from 6 piglets (2 biggest, 2 medium and 2 smallest) from 65 litters of their tails when they were cut and analyzed on immunoglobulin G (IgG) concentration. Placentas of the sows were collected after the farrowing process was finished, stored in freezers and afterwards scored on redness for an indication of the vascularization of these placentas.
# sows [2] = settings: for Probability of piglet Livability: 1-((stillborn + died pre weaning)/total pigs after cross fostering)
# Excerpt: During lactation, sows were fed either the positive control or negative control standard lactation diet according to a step-up feeding schedule. Until farrowing the sows were fed a fixed amount of either the positive or negative controls of the standard lactation diet twice a day. After farrowing the amount of feed either the positive or negative controls of the standard lactation diet fed was increased gradually till a maximum of 8 kg/sow per day. The amount of which could be adjusted based on the appetite of the sow. Piglets were fed Ad libitum (no milk was provided other than from the sow a commercial creep feed (meal, dry) from day 4-16 of age and a pelleted commercial prestarter from day 16 till weaning. In total, 150 sows were allocated over the three rooms based on parity. Within 2 days after farrowing, litters were standardized to 13-14 piglets per sow.
# The following measurements were recorded as shown in TABLE 1C: (i) sow weight and backfat thickness when entering the farrowing room (day 111 of gestation) and at weaning (22 days post farrowing); (ii) sow reproductive performance was recorded right after farrowing (number of piglets born total, alive, stillborn, mummified); (iii) piglets weights were recorded at birth, day 5 after birth and at weaning; (iv) creep feed intake of piglets between day 4 and weaning was recorded; (v) number of piglets alive at day 4 and at weaning were registered; (vi) when piglets died, the reason for dying was also registered; and (vii) interventions during the birth process (e.g. the use of planate, oxytocin and birth assistance).
# sows [3] = settings: 0.1% calcium nitrate in phase 1 diet, 19 May 2014 till 16 Aug. 2014
# Method: 600 sows and all sows were fed two diets over the test period. The first diet (phase 1) was fed from approximately 5 days pre-farrowing until 5 days post-farrowing. The second diet (phase 2) was fed from day 5 post-farrowing until weaning.
# The following measurements were recorded as shown in TABLE 2A: (i) gestation length; (ii) sow reproductive performance was recorded right after farrowing (number of piglets born total, alive, stillborn); (iii) piglet; (iv) total piglets weaned; (v) weaning weights; and (vi) piglets per sow per year; and […].
# [4] = 0.1% Bolifor CNF in transition feed, listed as Bolifor CNF ®
# [5] = 0.1% Bolifor CNF in transition feed, listed as Bolifor CNF®
# [6] = 0.1% Bolifor CNF, listed as Bolifor CNF ®
# [7] = 0.1% Bolifor CNF, listed as Bolifor CNF®
# [8] = 0.1% Bolifor CNF in lactation diet, means
# [9] = 0.1% Bolifor CNF, induction of sows as covariable
# [10] = 0.1% Bolifor CNF, induction of sows as covariable, listed as calcium nitrate
# [11] = piglets, 0.1% Bolifor CNF, corrected for lactation length
smiles,measurement,setting,value
"O=[N+]([O-])[O-].O=[N+]([O-])[O-].[Ca+2] [Bolifor CNF, calcium nitrate]",NBA (Number Born Alive),sows [1]; [4],16.84 ± 0.170
same,TNB (Total Number Born),sows [1]; [4],17.90 ± 0.460
same,NBA (Number Born Alive),sows [1]; [5],16.84
same,TNB (Total Number Born),sows [1]; [5],did not differ
same,"NBD (Number Born Death), stillborn piglets",sows [1]; [4],1.32 ± 0.006
same,"NBD (Number Born Death), stillborn piglets",sows [1]; [5],1.32
same,"Litter growth, 24 hour to 3 days",sows [1]; [6],1.80 ± 0.140 kg/day
same,"Litter growth, Start to 24 hour",sows [1]; [6],1.21 ± 0.161 kg/day
same,"Litter growth, Start to 3 days",sows [1]; [6],3.03 ± 0.234 kg/day
same,"Piglet weight, 24 hour",sows [1]; [6],1.41 ± 0.012 kg
same,"Piglet weight, 3 days",sows [1]; [6],1.55 ± 0.018 kg
same,"Piglet weight, Start",sows [1]; [6],1.32 ± 0.046 kg
same,"Litter growth, 24 hour to 3 days",sows [1]; [7],no differences were found
same,"Litter growth, Start to 24 hour",sows [1]; [7],no differences were found
same,"Litter growth, Start to 3 days",sows [1]; [7],no differences were found
same,"Piglet weight, 24 hour",sows [1]; [7],did not differ
same,"Piglet weight, 3 days",sows [1]; [7],did not differ
same,"Piglet weight, Start",sows [1]; [7],did not differ
same,"Colostrum, CI per piglet","sows [1]; 0.1% Bolifor CNF, calculated colostrum intake",222.02 g
same,"Colostrum, CI (Colostrum Intake)","sows [1]; 0.1% Bolifor CNF, calculated colostrum intake, listed as Bolifor CNF ®",2858.60 g
same,"Colostrum, CI (Colostrum Intake)","sows [1]; 0.1% Bolifor CNF, calculated colostrum intake, listed as Bolifor CNF®",No differences were found
same,"Litter weight, 24 hour",sows [1]; [6],18.14 kg
same,"Litter weight, 3 days",sows [1]; [6],19.93 kg
same,"Litter weight, Start",sows [1]; [6],16.70 kg
same,"Litter weight, 24 hour",sows [1]; [7],did not differ
same,"Litter weight, 3 days",sows [1]; [7],did not differ
same,"Litter weight, Start",sows [1]; [7],did not differ
same,"Piglet growth, 24 hour to 3 days",sows [1]; [6],0.140 kg/day
same,"Piglet growth, Start 3 days",sows [1]; [6],0.235 kg/day
same,"Piglet growth, Start to 24 hour",sows [1]; [6],0.093 kg/day
same,"Piglet growth, 24 hour to 3 days",sows [1]; [7],no differences were found
same,"Piglet growth, Start 3 days",sows [1]; [7],no differences were found
same,"Piglet growth, Start to 24 hour",sows [1]; [7],no differences were found
same,Mortality,sows [1]; [6],1.87
same,Mortality,sows [1]; [7],did not differ
same,Birth weight,sows [1]; [4],21.70 ± 0.614 kg
same,Birth weight,sows [1]; [5],did not differ
same,"NBD, highest parity group","sows [1]; parities >4, 0.1% Bolifor CNF in transition feed",1.21
same,Probability Born Mummified,sows [2]; 0.1% Bolifor CNF in lactation diet,2.3%
same,Total born,sows [2]; [8],16.3
same,Total born alive,sows [2]; [8],15.3
same,Total still born,sows [2]; [8],1.0
same,Total weaned,sows [2]; [8],13.1
same,Probability of piglet Livability,sows [2]; 0.1% Bolifor CNF,89.8
same,Probability of piglet Livability,"sows [2]; 0.1% Bolifor CNF, listed as calcium nitrate",numerically higher
same,Probability Still Born,sows [2]; [9],6.2%
same,Probability born alive,sows [2]; [9],93.8%
same,Probability of piglet mortality from cross fostering (day 4-5)-weaning,sows [2]; [9],2.0%
same,Probability of piglets alive at day 4-5,sows [2]; [9],92.5%
same,Probability Still Born,sows [2]; [10],numerically lower
same,Probability born alive,sows [2]; [10],numerically higher
same,ADG 0-5,"sows [2]; piglets, 0.1% Bolifor CNF",157 g/day
same,ADG 5-weaning,"sows [2]; piglets, 0.1% Bolifor CNF",245.3 g/day
same,Average birth weight,"sows [2]; piglets, 0.1% Bolifor CNF",1.36 kg
same,Average weight post fostering,"sows [2]; piglets, 0.1% Bolifor CNF",2.30 kg
same,Litter weight Pre fostering,"sows [2]; piglets, 0.1% Bolifor CNF",19.8 kg
same,Litter weight post fostering,"sows [2]; piglets, 0.1% Bolifor CNF, calculated, not measured",30.8 kg
same,Average weight at weaning,sows [2]; [11],6.71 kg
same,Litter weight at weaning,sows [2]; [11],82.0 kg
same,Litter weight at weaning,"sows [2]; piglets, 0.1% Bolifor CNF, corrected for lactation length, listed as calcium nitrate",numerically higher
same,Born Alive,sows [3],15.8
same,Mortality,sows [3],10.5%
same,Piglets/sow/year,sows [3],34.1
same,Pregnancy rate,sows [3],94.5%
same,Total born,sows [3],17.3
same,Weaning weight,sows [3],6.7 kg
same,Piglet Livability,sows [3]; listed as Calcium nitrate,82.7%
same,Piglets Weaned,sows [3]; listed as Calcium nitrate,14.3
same,Still Born,sows [3]; listed as Calcium nitrate,1.5
same,Piglet Livability,sows [3]; listed as calcium nitrate,increase
same,Piglets Weaned,sows [3]; listed as calcium nitrate,increase
same,Still Born,sows [3]; listed as calcium nitrate,decrease
